Results on ten molecules are retold here after ChEMBL document CHEMBL3868635, “Bromomethylthioindole Inspired Carbazole Hybrids as Promising Class of Anti-MRSA Agents” (ACS Med Chem Lett, 2016).

In brackets after ≈: the same amount, converted by molar mass.

The term MIC denotes the lowest concentration found to suppress growth. A higher MIC goes with a less susceptible organism. Usually Cmax stands for the peak of the concentration-time curve. Broadly, the half-life is the time in which the quantity being followed falls by half. Higher therefore signals slow decline. A word on the clearance: it is the rate of elimination divided by the concentration. A high value points to efficient removal. The term AUC(0-t) denotes exposure summed from dosing to a finite time, without extrapolation to infinity. Low values mean less exposure, high ones more exposure.

Series [1] concerns Staphylococcus aureus. Put plainly: Antibacterial activity against methicillin-susceptible Staphylococcus aureus ATCC 29213 incubated for overnight measured after 20 to 24 hrs by broth microdilution method. It counts as functional. In general terms: In broth dilution the organism is exposed to a series of concentrations in liquid medium.
Series [2] has as its system Staphylococcus aureus. Put plainly: Antibacterial activity against methicillin-resistant Staphylococcus aureus ATCC 43300 incubated for overnight measured after 20 to 24 hrs by broth microdilution method. It counts as functional.
Series [3] has as its system Staphylococcus aureus. In words: Antibacterial activity against methicillin-susceptible Staphylococcus aureus M056 incubated for overnight measured after 20 to 24 hrs by broth microdilution method. It counts as functional.
Series [4] deals with Staphylococcus aureus. In words: Antibacterial activity against methicillin-resistant Staphylococcus aureus M013 incubated for overnight measured after 20 to 24 hrs by broth microdilution method. It counts as functional.
Series [5] has as its system Staphylococcus aureus. In words: Antibacterial activity against methicillin-resistant Staphylococcus aureus N043 incubated for overnight measured after 20 to 24 hrs by broth microdilution method. It counts as functional.
Series [6] relates to Staphylococcus aureus. Put plainly: Antibacterial activity against methicillin-resistant Staphylococcus aureus C217 incubated for overnight measured after 20 to 24 hrs by broth microdilution method. It counts as functional.
The subject of series [7] is Staphylococcus aureus. Put plainly: Antibacterial activity against methicillin-resistant Staphylococcus aureus Y069 incubated for overnight measured after 20 to 24 hrs by broth microdilution method. It counts as functional.
Series [8] relates to Staphylococcus aureus. Put plainly: Antibacterial activity against methicillin-resistant Staphylococcus aureus L166 incubated for overnight measured after 20 to 24 hrs by broth microdilution method. It counts as functional.
Series [9] deals with Staphylococcus aureus. In words: Antibacterial activity against methicillin-resistant Staphylococcus aureus Z234 incubated for overnight measured after 20 to 24 hrs by broth microdilution method. It counts as functional.
Series [10] has as its system Staphylococcus aureus. Put plainly: Antibacterial activity against methicillin-resistant Staphylococcus aureus 4N216 incubated for overnight measured after 20 to 24 hrs by broth microdilution method. It counts as functional.
In series [11] the test system is Staphylococcus aureus. In words: Antibacterial activity against vancomycin-intermediate and daptomycin-nonsusceptible methicillin-resistant Staphylococcus aureus Z172 incubated for overnight measured after 20 to 24 hrs by broth microdilution method. It counts as functional.
In series [12] the test system is Enterococcus faecalis. In words: Antibacterial activity against vancomycin-resistant Enterococcus faecalis ATCC 51299 incubated for overnight measured after 20 to 24 hrs by broth microdilution method. It counts as functional.
Series [13] deals with Escherichia coli. Put plainly: Antibacterial activity against Escherichia coli ATCC 25922 incubated for overnight measured after 20 to 24 hrs by broth microdilution method. It counts as functional.
For series [14], the system named is Pseudomonas aeruginosa. Put plainly: Antibacterial activity against Pseudomonas aeruginosa ATCC 27853 incubated for overnight measured after 20 to 24 hrs by broth microdilution method. It counts as functional.
Series [15] relates to Klebsiella pneumoniae. In words: Antibacterial activity against Klebsiella pneumoneae ATCC 700603 incubated for overnight measured after 20 to 24 hrs by broth microdilution method. It counts as functional.
In series [16] the test system is Acinetobacter baumannii. Put plainly: Antibacterial activity against Acinetobacter baumannii ATCC 19606 incubated for overnight measured after 20 to 24 hrs by broth microdilution method. It counts as functional.
In series [17] the test system is Mus musculus. Put plainly: Acute toxicity in ICR mouse assessed as increase in body weight at 100 mg/kg, iv measured daily for 2 weeks. It counts as organism-based. Conditions: in vivo, 336 h.
Series [18] concerns Mus musculus. In words: Acute toxicity in ICR mouse assessed as increase in survival at 100 mg/kg, iv measured after 2 weeks. It counts as organism-based. Particulars: in vivo, 336 h.
Series [19] is described as follows: Cmax in ICR mouse plasma at 10 mg/kg, iv measured after 20 mins by LC-MS/MS analysis. It counts as ADME, organism-based. Set-up: dose 10 mg/kg, route intravenous.
Series [20] in a line: Half life in ICR mouse plasma at 10 mg/kg, iv by LC-MS/MS analysis. It counts as ADME, organism-based.
Series [21] in a line: Clearance in ICR mouse plasma at 10 mg/kg, iv by LC-MS/MS analysis. It counts as ADME, organism-based.
Series [22] can be described thus: Volume of distribution at steady state in ICR mouse plasma at 10 mg/kg, iv by LC-MS/MS analysis. It counts as ADME, organism-based. Particulars: read-out: Vdss.
Series [23] in a line: AUC (0 to 24 hrs) in ICR mouse plasma at 10 mg/kg, iv by LC-MS/MS analysis. It counts as ADME, organism-based. On the set-up: dose 10 mg/kg, time < 24 hr, route intravenous.
Series [24] has as its system Staphylococcus aureus. In words: Antibacterial activity against methicillin-resistant Staphylococcus aureus 4N216 infected in ICR mouse assessed as mouse survival rate at 20 mg/kg, iv administered as single dose 30 mins post-infection measured day 7 post infection relative to control. It counts as functional. Particulars: 4N216, iv.
Series [25] concerns Staphylococcus aureus. In words: Potency index, ratio of vanomycin MIC to compound MIC against vancomycin-intermediate and daptomycin-nonsusceptible methicillin-resistant Staphylococcus aureus Z172. It counts as functional.
The subject of series [26] is Enterococcus faecalis. In words: Potency index, ratio of […] MIC to compound MIC against vanomycin-resistant Enterococcus faecalis ATCC 51299.

With `OC(CNc1cc(Cl)nc(Cl)n1)Cn1c2ccc(Br)cc2c2cc(Br)ccc21` (stereo not drawn), the MIC in series [1] and in series [2] was over 32 µg/mL throughout.

Take `OC(CNCCc1cccc(F)c1)Cn1c2ccc(Br)cc2c2cc(Br)ccc21` (stereo not drawn): the MIC in series [1] and in [2] was 1 to 2 µg/mL (≈ 1.92 to 3.84 µM) in each case.

As for `O[C@@H](CNCCc1c[nH]c2ccc(Cl)cc12)Cn1c2ccc(Br)cc2c2cc(Br)ccc21`, the MIC in series [1] and in series [2] was 1 µg/mL (≈ 1.74 µM) in each case.

On to `OC(CNCCc1c[nH]c2cc(F)ccc12)Cn1c2ccc(Br)cc2c2cc(Br)ccc21` (stereo not drawn), for which the MIC is 1 µg/mL (≈ 1.79 µM) in series [1]; 1 µg/mL (≈ 1.79 µM) in [2]; 1 to 2 µg/mL (≈ 1.79 to 3.58 µM) in series [3]; 1 µg/mL (≈ 1.79 µM) in [4]; 1 µg/mL (≈ 1.79 µM) in series [5]; 1 µg/mL (≈ 1.79 µM) in [6]. For the same molecule, the MIC in series [7] came out at 1 µg/mL (≈ 1.79 µM); in series [8], 1 µg/mL (≈ 1.79 µM); in series [9] it was 1 µg/mL (≈ 1.79 µM); in series [10] it was 1 µg/mL (≈ 1.79 µM); in [11], 2 µg/mL (≈ 3.58 µM); in series [12], 2 µg/mL (≈ 3.58 µM). The MIC was 8 to 16 µg/mL (≈ 14.3 to 28.6 µM) in series [13], over 64 µg/mL in series [14], over 64 µg/mL in series [15] and 16 µg/mL (≈ 28.6 µM) in series [16]. The Activity result in series [17] and in [18] was “Non-Toxic” throughout.

On to `Oc1ccccc1CCNCC(O)Cn1c2ccc(Br)cc2c2cc(Br)ccc21` (stereo not drawn), for which the MIC in series [1] and in series [2] was 1 to 2 µg/mL (≈ 1.93 to 3.86 µM) throughout.

Regarding `OC(CNCCc1cccc(Cl)c1)Cn1c2ccc(Cl)cc2c2cc(Cl)ccc21` (stereo not drawn), the MIC in [3] turned out to be 1 µg/mL (≈ 2.23 µM); in [4] it was 4 µg/mL (≈ 8.93 µM); in [5] it was 4 µg/mL (≈ 8.93 µM); in series [6] it was 4 µg/mL (≈ 8.93 µM); in series [7] it was 4 µg/mL (≈ 8.93 µM); in [8] it was 4 µg/mL (≈ 8.93 µM). Moreover, the MIC was 4 µg/mL (≈ 8.93 µM) in [9]; 0.5 to 1 µg/mL (≈ 1.12 to 2.23 µM) in [10]; 4 µg/mL (≈ 8.93 µM) in series [11]; 2 µg/mL (≈ 4.47 µM) in [12]; over 64 µg/mL in [13]; over 64 µg/mL in series [14]. Besides, the MIC in [15] and in [16] was over 64 µg/mL in each case.

For `CN[C@H](CC(C)C)C(=O)N[C@H]1C(=O)N[C@@H](CC(N)=O)C(=O)N[C@H]2C(=O)N[C@H]3C(=O)N[C@H](C(=O)N[C@H](C(=O)O)c4cc(O)cc(O)c4-c4cc3ccc4O)[C@H](O)c3ccc(c(Cl)c3)Oc3cc2cc(c3O[C@@H]2O[C@H](CO)[C@@H](O)[C@H](O)[C@H]2O[C@H]2C[C@](C)(N)[C@H](O)[C@H](C)O2)Oc2ccc(cc2Cl)[C@H]1O` [VANCOMYCIN], the MIC is at most 0.5 µg/mL in [4] and 8 to 16 µg/mL (≈ 5.52 to 11 µM) in [12]. In series [19], this molecule returned a Cmax of 58500 ng/mL. Further, the half-life in series [20] was 0.6 h. The molecule further had a clearance in series [21] of 11.7 mL/min/kg. In series [22], the Vd is 0.3 L/kg. The AUC(0-t) at 24 h in [23] was 13700 ng·h/mL. In series [24], the survival at 20 mg/kg was 100%.

For `OC(CNc1nc(Cl)nc2ccccc12)Cn1c2ccc(Br)cc2c2cc(Br)ccc21` (stereo not drawn), the MIC in [1] and in series [2] was over 32 µg/mL each time.

Take `O[C@H](CNCCc1c[nH]c2cc(F)ccc12)Cn1c2ccc(Cl)cc2c2cc(Cl)ccc21`: the MIC in series [1] and in series [2] was 0.5 to 1 µg/mL (≈ 1.06 to 2.13 µM) each time.

Consider `OC(CNCCc1c[nH]c2cc(F)ccc12)Cn1c2ccc(Cl)cc2c2cc(Cl)ccc21` (racemic), for which the MIC in [1] is 0.5 to 1 µg/mL (≈ 1.06 to 2.13 µM); in series [2], 0.5 to 1 µg/mL (≈ 1.06 to 2.13 µM); in series [3], 1 µg/mL (≈ 2.13 µM); in series [4] it was 1 µg/mL (≈ 2.13 µM); in [5], 1 µg/mL (≈ 2.13 µM); in series [6], 1 µg/mL (≈ 2.13 µM). In addition, the MIC in series [7] turned out to be 1 µg/mL (≈ 2.13 µM); in [8], 1 µg/mL (≈ 2.13 µM); in series [9] it was 1 µg/mL (≈ 2.13 µM); in [10], 0.5 µg/mL (≈ 1.06 µM); in [11] it was 1 µg/mL (≈ 2.13 µM); in [12] it was 1 µg/mL (≈ 2.13 µM). Further, the MIC was 4 µg/mL (≈ 8.5 µM) in series [13], over 64 µg/mL in series [14], over 64 µg/mL in series [15] and 8 µg/mL (≈ 17 µM) in [16]. In [19], this molecule showed a Cmax of 29700 ng/mL. Moreover, the half-life in [20] was 10.3 h. In series [21], this molecule displayed a clearance of 6.9 mL/min/kg. For the same molecule, the Vd in series [22] worked out at 4.9 L/kg. The AUC(0-t) at 24 h in series [23] was found to be 20500 ng·h/mL. Moreover, the Activity entry in series [17] and in series [18] was “Non-Toxic” each time. For the same molecule, the survival at 20 mg/kg in series [24] stood at 75%. The Ratio was 4 - 16 in series [25] and 4 - 18 in series [26].
